Results as given in PubChem BioAssay (NCI).
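Assay format: 96-well plates, 48-hour exposure. GI50 is the concentration that inhibits growth by half. TGI marks complete inhibition of growth.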

What was measured:
Assay in all cases: DTP human tumour cell line panel, 48 h
DU-145 prostate = test system: DU-145 prostate
A549 NSCLC = test system: A549 NSCLC
SF-539 CNS = test system: SF-539 CNS
NCI-H23 lung = test system: NCI-H23 lung
786-0 renal = test system: 786-0 renal
MDA-MB-435 = test system: MDA-MB-435
TK-10 renal = test system: TK-10 renal
U251 CNS = test system: U251 CNS
SR leukemia = test system: SR leukemia
OVCAR-4 ovarian = test system: OVCAR-4 ovarian
KM12 colon = test system: KM12 colon
NCI-H522 lung = test system: NCI-H522 lung
HCC-2998 colon = test system: HCC-2998 colon
SNB-75 CNS = test system: SNB-75 CNS
MDA-MB-231 breast = test system: MDA-MB-231 breast
T-47D breast = test system: T-47D breast
SN12C renal = test system: SN12C renal
MOLT-4 leukemia = test system: MOLT-4 leukemia
A498 renal = test system: A498 renal
ACHN renal = test system: ACHN renal
UACC-257 melanoma = test system: UACC-257 melanoma
HCT-15 colon = test system: HCT-15 colon
EKVX NSCLC = test system: EKVX NSCLC
NCI-H226 lung = test system: NCI-H226 lung
BT-549 breast = test system: BT-549 breast
PC-3 prostate = test system: PC-3 prostate
HT29 colon = test system: HT29 colon
RXF 393 renal = test system: RXF 393 renal
CAKI-1 renal = test system: CAKI-1 renal
HOP-92 NSCLC = test system: HOP-92 NSCLC
SK-MEL-28 melanoma = test system: SK-MEL-28 melanoma
MCF7 breast = test system: MCF7 breast
COLO 205 colon = test system: COLO 205 colon
MALME-3M melanoma = test system: MALME-3M melanoma
HS 578T breast = test system: HS 578T breast
UO-31 renal = test system: UO-31 renal
SK-OV-3 ovarian = test system: SK-OV-3 ovarian
SF-295 CNS = test system: SF-295 CNS
LOX IMVI melanoma = test system: LOX IMVI melanoma
UACC-62 melanoma = test system: UACC-62 melanoma
M14 melanoma = test system: M14 melanoma
SW-620 colon = test system: SW-620 colon
IGROV1 ovarian = test system: IGROV1 ovarian
OVCAR-8 ovarian = test system: OVCAR-8 ovarian
K-562 leukemia = test system: K-562 leukemia
RPMI-8226 leukemia = test system: RPMI-8226 leukemia
OVCAR-3 ovarian = test system: OVCAR-3 ovarian
SK-MEL-5 melanoma = test system: SK-MEL-5 melanoma
SNB-19 CNS = test system: SNB-19 CNS
SF-268 CNS = test system: SF-268 CNS
NCI-H460 lung = test system: NCI-H460 lung
OVCAR-5 ovarian = test system: OVCAR-5 ovarian
CCRF-CEM leukemia = test system: CCRF-CEM leukemia
HOP-62 NSCLC = test system: HOP-62 NSCLC
HL-60(TB) leukemia = test system: HL-60(TB) leukemia
NCI/ADR-RES ovarian = test system: NCI/ADR-RES ovarian
SK-MEL-2 melanoma = test system: SK-MEL-2 melanoma
MDA-MB-468 breast = test system: MDA-MB-468 breast
HCT-116 colon = test system: HCT-116 colon

In the case of `O=C(CSc1nnc(-c2ccc(-c3nc4ccc(Cl)cc4[nH]3)cc2)o1)Nc1ccc(Cl)cc1`, the GI50 (DU-145 prostate) is reported as 4.14 µM, the TGI (DU-145 prostate) is reported as 15.6 µM and the GI50 (A549 NSCLC) is reported as 1.8 µM. It also gave a TGI (A549 NSCLC) of 3.97 µM, a GI50 (SF-539 CNS) of 1.67 µM and a TGI (SF-539 CNS) of 3.15 µM. For the same molecule, the GI50 (NCI-H23 lung) was 1.99 µM, the TGI (NCI-H23 lung) was 4.74 µM and the GI50 (786-0 renal) was 2.21 µM. For the same molecule, the TGI (786-0 renal) was 5.57 µM, the GI50 (MDA-MB-435) was 3.07 µM and the TGI (MDA-MB-435) was 10.6 µM. For the same molecule, the GI50 (TK-10 renal) was 15.6 µM, the TGI (TK-10 renal) was 32.2 µM and the GI50 (U251 CNS) was 1.96 µM. It also gave a TGI (U251 CNS) of 4.07 µM, a GI50 (SR leukemia) of 1.85 µM and a TGI (SR leukemia) of 6.63 µM. The GI50 (OVCAR-4 ovarian) was 4.48 µM, the TGI (OVCAR-4 ovarian) was 19.3 µM and the GI50 (KM12 colon) was 4.05 µM. For the same molecule, the TGI (KM12 colon) was 18.5 µM, the GI50 (NCI-H522 lung) was 1.85 µM and the TGI (NCI-H522 lung) was 5.47 µM. The GI50 (HCC-2998 colon) was 11.2 µM, the TGI (HCC-2998 colon) was 27.3 µM and the GI50 (SNB-75 CNS) was 2.33 µM. The TGI (SNB-75 CNS) was 8.66 µM, the GI50 (MDA-MB-231 breast) was 1.63 µM and the TGI (MDA-MB-231 breast) was 3.49 µM. For the same molecule, the GI50 (T-47D breast) was 2.8 µM, the TGI (T-47D breast) was 19.8 µM and the GI50 (SN12C renal) was 1.72 µM. It also gave a TGI (SN12C renal) of 4.03 µM, a GI50 (MOLT-4 leukemia) of 2.81 µM and a TGI (MOLT-4 leukemia) of 14.3 µM. It also gave a GI50 (A498 renal) of 16.2 µM, a TGI (A498 renal) of 30.6 µM and a GI50 (ACHN renal) of 1.91 µM. It also gave a TGI (ACHN renal) of 4.9 µM, a GI50 (UACC-257 melanoma) of 2.62 µM and a TGI (UACC-257 melanoma) of 10 µM. The GI50 (HCT-15 colon) was 2.41 µM, the TGI (HCT-15 colon) was 11.6 µM and the GI50 (EKVX NSCLC) was 2.7 µM. The TGI (EKVX NSCLC) was 12.7 µM, the GI50 (NCI-H226 lung) was 1.6 µM and the TGI (NCI-H226 lung) was 4.36 µM. The GI50 (BT-549 breast) was 2.15 µM, the TGI (BT-549 breast) was 6.23 µM and the GI50 (PC-3 prostate) was 1.9 µM. It also gave a TGI (PC-3 prostate) of 5.37 µM, a GI50 (HT29 colon) of 3.2 µM and a TGI (HT29 colon) of 10.9 µM. The GI50 (RXF 393 renal) was 1.93 µM, the TGI (RXF 393 renal) was 5 µM and the GI50 (CAKI-1 renal) was 2.43 µM. For the same molecule, the TGI (CAKI-1 renal) was 8.47 µM, the GI50 (HOP-92 NSCLC) was 2.35 µM and the TGI (HOP-92 NSCLC) was 9.26 µM. For the same molecule, the GI50 (SK-MEL-28 melanoma) was 1.53 µM, the TGI (SK-MEL-28 melanoma) was 3.33 µM and the GI50 (MCF7 breast) was 2.82 µM. It also gave a TGI (MCF7 breast) of 13.3 µM, a GI50 (COLO 205 colon) of 11.8 µM and a TGI (COLO 205 colon) of 36 µM. It also gave a GI50 (MALME-3M melanoma) of 1.85 µM, a TGI (MALME-3M melanoma) of 4.31 µM and a GI50 (HS 578T breast) of 2.27 µM. For the same molecule, the TGI (HS 578T breast) was 7.65 µM, the GI50 (UO-31 renal) was 3.59 µM and the TGI (UO-31 renal) was 15.8 µM. It also gave a GI50 (SK-OV-3 ovarian) of 5.93 µM, a TGI (SK-OV-3 ovarian) of 20.8 µM and a GI50 (SF-295 CNS) of 1.99 µM. For the same molecule, the TGI (SF-295 CNS) was 5.23 µM, the GI50 (LOX IMVI melanoma) was 1.4 µM and the TGI (LOX IMVI melanoma) was 2.8 µM. The GI50 (UACC-62 melanoma) was 1.7 µM, the TGI (UACC-62 melanoma) was 3.86 µM and the GI50 (M14 melanoma) was 3.05 µM. The TGI (M14 melanoma) was 11 µM, the GI50 (SW-620 colon) was 2.94 µM and the TGI (SW-620 colon) was 14.1 µM. It also gave a GI50 (IGROV1 ovarian) of 4.66 µM, a TGI (IGROV1 ovarian) of 18.4 µM and a GI50 (OVCAR-8 ovarian) of 2.04 µM. For the same molecule, the TGI (OVCAR-8 ovarian) was 5.16 µM, the GI50 (K-562 leukemia) was 2.19 µM and the TGI (K-562 leukemia) was 11.1 µM. For the same molecule, the GI50 (RPMI-8226 leukemia) was 3.99 µM, the TGI (RPMI-8226 leukemia) was 17.4 µM and the GI50 (OVCAR-3 ovarian) was 3.18 µM. The TGI (OVCAR-3 ovarian) was 10.6 µM, the GI50 (SK-MEL-5 melanoma) was 2.92 µM and the TGI (SK-MEL-5 melanoma) was 11.2 µM. It also gave a GI50 (SNB-19 CNS) of 3.45 µM, a TGI (SNB-19 CNS) of 12.3 µM and a GI50 (SF-268 CNS) of 3.04 µM. It also gave a TGI (SF-268 CNS) of 11.7 µM, a GI50 (NCI-H460 lung) of 1.96 µM and a TGI (NCI-H460 lung) of 4.29 µM. For the same molecule, the GI50 (OVCAR-5 ovarian) was 3.11 µM, the TGI (OVCAR-5 ovarian) was 14.6 µM and the GI50 (CCRF-CEM leukemia) was 2.59 µM. It also gave a TGI (CCRF-CEM leukemia) of 11 µM, a GI50 (HOP-62 NSCLC) of 1.62 µM and a TGI (HOP-62 NSCLC) of 3.69 µM. It also gave a GI50 (HL-60(TB) leukemia) of 2.82 µM, a TGI (HL-60(TB) leukemia) of 12.5 µM and a GI50 (NCI/ADR-RES ovarian) of 4.01 µM. It also gave a TGI (NCI/ADR-RES ovarian) of 18.9 µM, a GI50 (SK-MEL-2 melanoma) of 3.02 µM and a TGI (SK-MEL-2 melanoma) of 13.1 µM. For the same molecule, the GI50 (MDA-MB-468 breast) was 2.37 µM, the TGI (MDA-MB-468 breast) was 8.01 µM and the GI50 (HCT-116 colon) was 2.92 µM. The TGI (HCT-116 colon) was 11.8 µM.
